According to the supplement of paper PMC10307832:

Tests used:
Assay in all cases: relative viability (nuclei count vs DMSO), 5 days (fraction); higher = more cells survive
[1] = compound: CCc1c2c(nc3ccc(OC(=O)N4CCC(N5CCCCC5)CC4)cc13)-c1cc3c(c(=O)n1C2)COC(=O)[C@]3(O)CC [Irinotecan] + CS(=O)(=O)N1CCN(Cc2cc3nc(-c4cccc5[nH]ncc45)nc(N4CCOCC4)c3s2)CC1 [Pictilisib] (partner 1 µM)
Summary of the method: (§1)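 Five library-drug doses in √10 steps were combined with a fixed anchor-drug dose, or a single drug was given alone, by pin tool to lung cancer cell lines in 1536-well plates the day after seeding. Nuclei were stained and counted after 5 days. Relative viability is the nuclei count in treated wells over that in vehicle wells, taken as the median of duplicate plates.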

[2] = compound: CCc1c2c(nc3ccc(OC(=O)N4CCC(N5CCCCC5)CC4)cc13)-c1cc3c(c(=O)n1C2)COC(=O)[C@]3(O)CC [Irinotecan] + Nc1nc2[nH]cc(CCc3ccc(C(=O)N[C@@H](CCC(=O)O)C(=O)O)cc3)c2c(=O)[nH]1 [Pemetrexed] (partner 0.2 µM)
Summary of the method: as §1

[3] = compound: CC[C@@H](C)CNCC(=O)N1CCC2=C([C@@H]1COC3=CC=CC(=C3)C)C=CS2 [RU-SKI 43] + O=C(c1cc(Cc2n[nH]c(=O)c3ccccc23)ccc1F)N1CCN(C(=O)C2CC2)CC1 [Olaparib] (partner 8 µM)
Summary of the method: as §1

[4] = compound: Cn1cc(-c2cnc3ccc4ccc(CS(=O)(=O)NCc5ccccn5)cc4c(=O)c3c2)cn1 [MK-8033] + CC(=O)Nc1cccc(-n2c(=O)n(C3CC3)c(=O)c3c(Nc4ccc(I)cc4F)n(C)c(=O)c(C)c32)c1 [Trametinib] (partner 0.02 µM)
Summary of the method: as §1

| Cell Line | relative viability ([1]; first compound 0.6325 µM) | relative viability ([1]; first compound 2 µM) | relative viability ([1]; first compound 6.325 µM) | relative viability ([1]; first compound 20 µM) | relative viability ([2]; first compound 0.6325 µM) | relative viability ([2]; first compound 2 µM) | relative viability ([2]; first compound 6.325 µM) | relative viability ([2]; first compound 20 µM) | relative viability ([3]; first compound 0.1 µM) | relative viability ([3]; first compound 0.3162 µM) | relative viability ([3]; first compound 1 µM) | relative viability ([3]; first compound 3.162 µM) | relative viability ([3]; first compound 10 µM) | relative viability ([4]; first compound 0.02 µM) | relative viability ([4]; first compound 0.06325 µM) | relative viability ([4]; first compound 0.2 µM) | relative viability ([4]; first compound 0.6325 µM) | relative viability ([4]; first compound 2 µM) |
| --- | --- | --- | --- | --- | --- | --- | --- | --- | --- | --- | --- | --- | --- | --- | --- | --- | --- | --- |
| NCI-H1915 | 0.341 | 0.261 | 0.185 | 0.195 | 0.352 | 0.349 | 0.187 | 0.132 | 0.266 | 0.288 | 0.25 | 0.261 | 0.251 | 0.276 | 0.319 | 0.274 | 0.289 | 0.306 |
| SK-MES-1 | 0.336 | 0.319 | 0.254 | 0.257 | 0.839 | 0.808 | 0.312 | 0.142 | 0.643 | 0.775 | 0.762 | 0.737 | 0.702 | 0.44 | 0.478 | 0.539 | 0.583 | 0.534 |
| NCI-H2342 | – | – | – | – | 0.452 | 0.807 | 0.845 | 0.461 | 0.387 | – | 0.44 | 0.428 | 0.358 | 0.83 | 0.773 | 0.827 | 0.999 | 0.83 |
| NCI-H1299 | 0.516 | 0.563 | 0.256 | 0.0872 | – | – | – | – | 0.948 | 0.995 | 1.04 | 0.99 | 0.959 | – | – | – | – | – |
| NCI-H1650 | 0.254 | 0.657 | 0.295 | 0.108 | 0.365 | 0.373 | 0.282 | 0.111 | 0.654 | 1.03 | 0.823 | 0.919 | 0.709 | 0.568 | 0.637 | 0.53 | 0.625 | 0.54 |
| NCI-H647 | – | 0.65 | 0.219 | 0.208 | 0.165 | 0.154 | 0.153 | 0.105 | 0.584 | 0.821 | 0.512 | 0.695 | 0.628 | 0.449 | 0.469 | 0.412 | 0.456 | 0.415 |
| NCI-H1944 | 0.235 | 0.251 | 0.181 | 0.214 | 0.553 | 0.516 | 0.284 | 0.175 | 0.391 | 0.417 | 0.413 | 0.433 | 0.386 | 0.407 | 0.418 | 0.395 | 0.391 | 0.398 |
| NCI-H23 | 0.397 | 0.442 | 0.256 | 0.258 | 0.484 | 0.597 | 0.268 | 0.256 | 0.28 | 0.263 | 0.292 | 0.326 | 0.279 | 0.331 | 0.349 | 0.331 | – | 0.381 |
| NCI-H1792 | 0.281 | 0.199 | 0.106 | 0.11 | 0.507 | 0.823 | 0.188 | 0.282 | 0.301 | 0.472 | 0.474 | 0.385 | 0.281 | 0.536 | 0.33 | 0.352 | 0.437 | 0.36 |
| HCC-78 | 0.276 | 0.172 | 0.149 | 0.158 | 0.87 | 0.99 | 0.897 | 0.94 | 0.849 | 1.02 | 0.767 | 0.868 | 0.856 | 0.611 | 0.614 | 0.739 | 0.325 | 0.578 |
| NCI-H1648 | – | – | – | – | 0.703 | 0.68 | 0.453 | 0.423 | 1.02 | 1.06 | 0.614 | 0.91 | 0.835 | 0.499 | – | 0.408 | 0.499 | 0.432 |
| NCI-H1703 | 0.236 | 0.308 | 0.381 | 0.221 | – | – | – | – | 0.439 | 0.456 | 0.407 | 0.452 | 0.248 | – | – | – | – | – |
| NCI-H1563 | 0.59 | 0.684 | 0.731 | 0.3 | 0.649 | 0.777 | 0.756 | 0.671 | – | – | – | – | – | – | – | – | – | – |
| Calu-6 | 0.573 | 0.417 | 0.219 | 0.0958 | – | – | – | – | 0.555 | 0.621 | 0.622 | 0.615 | 0.499 | – | – | – | – | – |
| IA-LM | 0.367 | 0.234 | 0.265 | 0.116 | – | – | – | – | 0.877 | 0.87 | 0.976 | 0.732 | 0.812 | – | – | – | – | – |
| NCI-H522 | – | – | – | – | 0.966 | 0.824 | 0.566 | 0.498 | 0.661 | 0.641 | 0.596 | 0.707 | 0.601 | 0.72 | 0.701 | 0.669 | 0.657 | 0.766 |
| SW 900 | – | – | – | – | – | 0.538 | 0.36 | 0.406 | 0.94 | 0.952 | 0.821 | 0.814 | 0.806 | 0.762 | 0.583 | 0.612 | 0.936 | 0.848 |
| A549 | 0.502 | 0.452 | 0.139 | 0.0724 | – | – | – | – | 0.362 | 0.462 | 0.277 | 0.278 | 0.291 | – | – | – | – | – |
| NCI-H727 | 0.277 | 0.353 | 0.35 | 0.289 | – | – | – | – | – | 0.515 | 0.694 | 0.67 | 0.624 | 0.371 | 0.358 | 0.339 | 0.393 | 0.429 |
